Results: patent US6344442B2, “Zona pellucida proteins for contraception” (Schering Aktiengesellschaft, priority 1996, dated 2002)

Key:
Type in all cases: cell-based
[1] = system: human zona pellucida (bonding of human sperm); assay: Zona pellucida bonding test in humans (hemizona); conditions: 4 hours at 37° C.
Description: For the zona bonding test in humans, the ejaculate of normo-zoospermatocidal donor semen is prepared with use of SpermFertil^(R) glass wool columns (Mello Ltd., FRG). The filtrates were washed and resuspended in HFT-HSA (HFT=human tubal fluid medium according to Quinn et al., supplemented with 10 mg/ml of human serum albumin=HSA).
All human oocytes are obtained from post mortem material. Provision is made at all times to ensure that all legal, ethical and moral guidelines during the entire process are strictly followed.
Unless otherwise indicated, the oocytes are stored in 36.6 mmol of HEPES buffer, pH 7.4, which contains […] MgCl2 and 0.1% PVP at 4° C.
The experiments consist of three incubation drops that contain 10 μl of a standard HTF-HSA medium (see above) and 40 μl of working medium (see below). A specific number of oocytes (for TEM) or hemizonae for the bonding was added to each drop to ensure bonding. For the bonding experiments, a 10 μl sperm drop (50×10^6/ml) was added to each drop, covered with mineral oil, and incubated for 4 hours at 37° C. in 5% CO2. The statistical evaluation was done according to the non-parametric Mann-Whitney two-sample test.
Composition of the working medium: 20 μl of 5 mmol NaH2PO4 (adjusted with phosphoric acid), pH 2.5, plus 20 μl of a specially composed doubly-concentrated HTF-HSA medium, mixed at a ratio of 1:1 (vol/vol).
Composition of the doubly-concentrated HTF-HSA medium: […]

capacitated human sperm = assay: Acrosome reaction in capacitated human sperm
[2] = system: mouse zona pellucida (bonding of mouse sperm); assay: Zona pellucida bonding test in mice (sperm bonding to isolated zonae); conditions: 20 sperm bonds per zona corresponds to 100%
Description: (§1) To recover sperm, a mouse buck is sacrificed, and the two epididymal appendages are removed and transferred into the prepared small Petri dishes [see above under b)]. The tissue parts are cut in the medium, so that the sperm can escape. The sperm are capacitated for one hour in the incubator. After the capacitation time has been completed, the sperm are diluted 1:5 with BWW/0.3 BSA. For counting in the counting chamber, a 1:1 aliquot is diluted with doubly distilled H2O. The desired sperm concentration is 40,000-80,000/0.1 ml.
(§2) The animals are sacrificed 13 hours after the HCG injection, and the tubes are removed and transferred into the prepared small Petri dishes [see above under a)]. Pending further processing, the small dishes are kept at 37° C. on the warming plate. Under the stereomicroscope, the tubes that are in oil are pulled apart. In this case, the cumulus clouds pour out, which then are transferred into the prepared medium drops (two cumulus clouds per drop).
The sperm and oocytes are obtained as described in in vitro fertilization.
The oocytes that are obtained as under I.2.3. are taken up by a finely drawn Pasteur pipette, whose diameter must be somewhat smaller than the diameter of the oocytes, with a few μl of BWW medium. This process is repeated several times and finally causes the zonae pellucida to burst. The cytoplasmic portion of the ooctyes is released, and the isolated zona pellucida is collected for further tests and covered in 0.1 ml of BWW medium with equilibrated oil and kept at 37° C.
The capacitated mouse sperm (see I.2.2) are preincubated for 15 minutes either with a solvent or the desired substance, and then 0.1 ml drops are added to the isolated zonae pellucidae, in such a way that the incubation volume is a total of 0.2 ml (under oil). About 20 zonae pellucidae are studied per drop. The sperm concentration per drop is between 10,000 and 30,000 per μl. Sperm and zonae are incubated for 45 minutes in an incubator (see Description under I.2). After the incubation period, the number of bonded sperm per zona is evaluated under an inverse microscope. The upper limit of the sperm, which have yet to be counted exactly, is 20 sperm per zona pellucida under control conditions.
10,000 Sperm per 0.01 ml with 20 sperm bonds per zonae corresponds to 100%

[3] = system: mouse oocytes and sperm (in vitro fertilization); assay: Mouse in vitro fertilization; conditions: 24 hours incubation
Source text: I. In Vitro Fertilization
In vitro fertilization represents a test system that makes possible a first review of a contraceptive effect of substances. In this case, the possibility exists of studying whether the contraceptive effect can be attributed primarily to an inhibition of the sperm function(s) or to an inhibiting effect on the oocytes, or to the two above-mentioned effects.
Fertile female mice (CB6F1 strain) about 12 weeks of age; fertile male mice (CB6F1 strain) at least 14 weeks of age.
c) 0.1 ml of BWW/0.3% BSA, corresponding to the concentrations that are to be tested, is mixed with or without substance (control) for the fertilization (prepared after removal of the tubes), covered with equilibrated oil, and kept at 37° C.
10 injection units of PMS/0.1 ml are injected intrapericutaneously into the approximately 12-week-old fertile mice, and 54 hours later, 10 injection units of HCG/0.1 ml are administered.
as §1, §2
0.1 ml of dilute sperma-defined concentration is added to the oocytes that are in the medium drops and is incubated for 24 hours in the incubator at 37° C.
After incubating for 24 hours in the incubator, the following parameters are computed:
The fertilization rate corresponds to the number of divided oocytes per total number of intact oocytes.

sperm = assay: Sperm movement parameters

Substance: Ac-CGTPSHSRRQPHVMS-NH2 [human ZPC (ZP3) peptide, residues 327-341]
- % Inhibition of Sperm Bonding (Human) to the Human Zona Pellucida ([1]; 1 μg/ml peptide): 45%
- % Inhibition of Sperm Bonding (Human) to the Human Zona Pellucida ([1]; 10 μg/ml peptide): 88%
- triggering of the acrosome reaction (capacitated human sperm): do not trigger the acrosome reaction

Substance: Ac-QRPGHIQFQS-NH2 [Ac-QRPGHIQFQS-NH2 (reverse), reference compound]
- % Inhibition of Sperm Bonding (Mouse) to the Mouse Zona Pellucida ([2]; 1 μg/ml peptide): 0%
- % Inhibition of Sperm Bonding (Mouse) to the Mouse Zona Pellucida ([2]; 10 μg/ml peptide): 0%

Substance: Ac-SQFQIHGPRQ-NH2
- % Inhibition of Mouse In Vitro Fertilization ([3]; 0.1 μg/ml peptide): 0%
- % Inhibition of Mouse In Vitro Fertilization ([3]; 1 μg/ml peptide): 63%
- % Inhibition of Mouse In Vitro Fertilization ([3]; 10 μg/ml peptide): 5%

Substance: NH2-RYPRQGNVSS-COOH (H-RYPRQGNVSS-OH) [human ZPC (ZP3) peptide, residues 141-150]
- % Inhibition of Sperm Bonding (Mouse) to the Mouse Zona Pellucida ([2]; 0.1 μg/ml peptide): 71%
- % Inhibition of Sperm Bonding (Mouse) to the Mouse Zona Pellucida ([2]; 10 μg/ml peptide): 89%
- % Inhibition of Sperm Bonding (Mouse) to the Mouse Zona Pellucida ([2]; 100 μg/ml peptide): 91%
- % Inhibition of Sperm Bonding (Human) to the Human Zona Pellucida ([1]; 1 μg/ml peptide): 76%
- % Inhibition of Sperm Bonding (Human) to the Human Zona Pellucida ([1]; 10 μg/ml peptide): 77%
- triggering of the acrosome reaction (capacitated human sperm): do not trigger the acrosome reaction
- influence on parameters of the sperm movement (sperm): does not influence any parameters of the sperm movement

Substance: NH2-SQFQIHGPRQ-COOH (H-SQFQIHGPRQ-OH)
- % Inhibition of Sperm Bonding (Mouse) to the Mouse Zona Pellucida ([2]; 1 μg/ml peptide): 61%
- % Inhibition of Sperm Bonding (Mouse) to the Mouse Zona Pellucida ([2]; 10 μg/ml peptide): 72%
- % Inhibition of Mouse In Vitro Fertilization ([3]; 0.1 μg/ml peptide): 52%
- % Inhibition of Mouse In Vitro Fertilization ([3]; 1 μg/ml peptide): 29%
- % Inhibition of Mouse In Vitro Fertilization ([3]; 10 μg/ml peptide): 1%

Substance: NH2-SRNRRHVTEEADVT-COOH (H-SRNRRHVTEEADVT-OH) [human ZPC (ZP3) peptide, residues 348-361]
- % Inhibition of Sperm Bonding (Mouse) to the Mouse Zona Pellucida ([2]; 0.1 μg/ml peptide): 69%
- % Inhibition of Sperm Bonding (Mouse) to the Mouse Zona Pellucida ([2]; 10 μg/ml peptide): 85%
- % Inhibition of Sperm Bonding (Mouse) to the Mouse Zona Pellucida ([2]; 100 μg/ml peptide): 82%
- % Inhibition of Sperm Bonding (Human) to the Human Zona Pellucida ([1]; 1 μg/ml peptide): 0%
- % Inhibition of Sperm Bonding (Human) to the Human Zona Pellucida ([1]; 10 μg/ml peptide): 0%

Substance: NH2-TPT..PDQNASPY-COOH (H-TPTPDQNASPY-OH) [human ZPC (ZP3) peptide, residues 220-230]
- % Inhibition of Sperm Bonding (Human) to the Human Zona Pellucida ([1]; 1 μg/ml peptide): 0%
- % Inhibition of Sperm Bonding (Human) to the Human Zona Pellucida ([1]; 10 μg/ml peptide): 18%

Substance: NH2-TRRCRTASHPVSASE-COOH (H-TRRCRTASHPVSASE-OH) [human ZPC (ZP3) peptide, residues 410-424]
- % Inhibition of Sperm Bonding (Mouse) to the Mouse Zona Pellucida ([2]; 0.1 μg/ml peptide): 86%
- % Inhibition of Sperm Bonding (Mouse) to the Mouse Zona Pellucida ([2]; 10 μg/ml peptide): 87%
- % Inhibition of Sperm Bonding (Human) to the Human Zona Pellucida ([1]; 1 μg/ml peptide): 61%
- % Inhibition of Sperm Bonding (Human) to the Human Zona Pellucida ([1]; 10 μg/ml peptide): 88%
